Data as given in ChEMBL document CHEMBL6087404, “Naphthoindole-2-carboxamides as a lipophilic chemotype of hetarene-anthraquinones potent against P-gp resistant tumor cells” (Eur J Med Chem, 2025).
Calls of active or inactive are those of the source. The rule behind the calls is not given here.

Experiments:
A549 = experiment: Antiproliferative activity against human A549 cells incubated for 72 hrs by MTT assay; type: functional, cell-based; conditions: A549, 72 h
[1] = Selectivity index, ratio of IC50 for human hFB-hTERT6 cells to IC50 for human K562 cells; type: toxicity; conditions: hFB-hTERT6 cells and K562 cells, read-out: Ratio IC50
K562 = experiment: Antiproliferative activity against human K562 cells incubated for 72 hrs by MTT assay; type: functional, cell-based; conditions: K562, 72 h
K562/4 = experiment: Antiproliferative activity against human K562/4 cells incubated for 72 hrs by MTT assay; type: functional, cell-based; conditions: K562/4, 72 h
[2] = Resistance index, ratio of IC50 for human K562/4 cells to IC50 for human K562 cells; type: functional
[3] = Antiproliferative activity against hFB-hTERT6 cells incubated for 72 hrs by MTT assay; type: toxicity, cell-based; conditions: human
[4] = Drug uptake in human HCT-116 cells at 3 uM incubated for 10 mins by confocal microscopy; type: ADME, cell-based; conditions: hct-116, 10 min
[5] = Drug uptake in P-gp+ human […] cells at 3 uM incubated for 10 mins by confocal microscopy; type: ADME, cell-based; conditions: k562/4, 10 min
[6] = target: T1, DNA topoisomerase 1 (Homo sapiens) (UniProt P11387); experiment: Inhibition of Top1 (unknown origin)-mediated unwinding of supercoiled DNA at 5 uM incubated for 30 mins by electrophoretic analysis
T1 sequence (whole entry): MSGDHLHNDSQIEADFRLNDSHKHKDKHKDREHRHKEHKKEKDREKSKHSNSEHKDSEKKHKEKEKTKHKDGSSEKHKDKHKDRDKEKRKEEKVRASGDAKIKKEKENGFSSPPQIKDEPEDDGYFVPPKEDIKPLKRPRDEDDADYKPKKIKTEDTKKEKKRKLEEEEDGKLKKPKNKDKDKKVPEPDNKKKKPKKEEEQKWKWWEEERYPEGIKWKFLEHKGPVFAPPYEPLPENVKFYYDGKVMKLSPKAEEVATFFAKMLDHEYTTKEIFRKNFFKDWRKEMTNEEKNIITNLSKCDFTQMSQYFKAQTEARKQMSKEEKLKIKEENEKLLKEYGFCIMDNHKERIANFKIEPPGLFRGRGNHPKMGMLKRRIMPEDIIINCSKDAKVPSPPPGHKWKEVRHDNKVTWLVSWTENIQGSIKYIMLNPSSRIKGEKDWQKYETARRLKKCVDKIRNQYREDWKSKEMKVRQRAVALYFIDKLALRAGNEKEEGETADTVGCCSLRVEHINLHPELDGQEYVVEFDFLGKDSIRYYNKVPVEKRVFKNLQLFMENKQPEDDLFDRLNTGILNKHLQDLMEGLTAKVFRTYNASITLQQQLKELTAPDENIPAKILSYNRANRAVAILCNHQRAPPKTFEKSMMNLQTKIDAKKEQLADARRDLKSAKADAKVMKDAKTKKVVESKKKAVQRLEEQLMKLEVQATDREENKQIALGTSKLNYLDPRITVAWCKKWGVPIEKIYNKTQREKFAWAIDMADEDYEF

[7] = Drug uptake in nuclear membrane of human HCT-116 cells at 3 uM incubated for 1 hr by confocal microscopy; type: ADME, cell membranes; conditions: hct-116, 1 h
DNA = experiment: Binding affinity to pBR322 plasmid DNA (unknown origin) assessed as effect on electrophoretic mobility of DNA at 1 to 40 uM incubated for 30 mins; type: nucleic-acid assay; conditions: Escherichia coli, dose 1-40 µM
[8] = Drug uptake in lysosome of human HCT-116 cells at 3 uM incubated for 1 hr by LysoTracker Deep Red dye based confocal microscopy; type: ADME, subcellular; conditions: hct-116, 1 h
[9] = Drug uptake in cytoplasmic membrane of human HCT-116 cells at 3 uM incubated for 1 hr by confocal microscopy; type: ADME, cell membranes, Cytoplasm membrane; conditions: hct-116, 1 h
[10] = Drug uptake in human K562 cells at 2 uM incubated for 3 to 120 hrs by flow cytometry; type: ADME, cell-based; conditions: k562, 2 µM, time 3-120 hrs

Row | IC50 (A549) [nM] | IC50 (K562) [nM] | IC50 (K562/4) [nM] | Drug uptake [4] | Drug uptake [5] | inhibition [6] | Drug uptake [7] | Activity (DNA) | Drug uptake [8] | Drug uptake [9] | Drug uptake [10] | Compound | selectivity ratio [1] | Ratio IC50 [2] | IC50 at 72 h [3] [nM]
1 | 4400 | 1000 | 1200 |  |  |  |  |  |  |  |  | CS(=O)(=O)O.O=C1c2ccccc2C(=O)c2c1c(O)c1cc(C(=O)N3CCNCC3)[nH]c1c2O | 3.3 | 1.2 | 3300
2 | 2000 |  | 400 |  |  |  |  |  |  |  |  | N[C@H]1CCN(C(=O)c2cc3c(O)c4c(c(O)c3s2)C(=O)c2ccccc2C4=O)C1 | 6 | 1.2 | 1800
3 | 1200 | 1200 | 1000 |  |  |  |  |  |  |  |  | CS(=O)(=O)O.NC1CCCN(C(=O)c2cc3c(O)c4c(c(O)c3[nH]2)C(=O)c2ccccc2C4=O)C1 (racemic) | 1.5 | 0.8 | 1800
4 | 4000 | 2300 | 47000 |  |  |  |  |  |  |  |  | CS(=O)(=O)O.O=C(N[C@@H]1CCNC1)c1cc2c(O)c3c(c(O)c2[nH]1)C(=O)c1ccccc1C3=O | 2.2 | 20.4 | 5000
5 | 4300 | 1300 | 1200 |  |  |  |  |  |  |  |  | CS(=O)(=O)O.N[C@@H]1CCN(C(=O)c2cc3c(O)c4c(c(O)c3[nH]2)C(=O)c2ccccc2C4=O)C1 | 3.3 | 0.9 | 4300
6 | 1900 | 400 | 50000 | Active | Active | Active; Slightly Less Potent | Not_active | inactive | Active | Not_active | Not_active | Cc1[nH]c2c(O)c3c(c(O)c2c1C(=O)N1CC[C@H](N)C1)C(=O)c1ccccc1C3=O | 12.5 | 125 | 5000
7 | 4300 | 3500 | 43000 |  |  |  |  |  |  |  |  | CS(=O)(=O)O.O=C(N[C@H]1CCNC1)c1cc2c(O)c3c(c(O)c2[nH]1)C(=O)c1ccccc1C3=O | 1.6 | 12.3 | 5500
8 | 4200 | 1800 | 41000 |  |  |  |  |  |  |  |  | CS(=O)(=O)O.O=C(NC1CCNCC1)c1cc2c(O)c3c(c(O)c2[nH]1)C(=O)c1ccccc1C3=O | 1.4 | 22.8 | 2600
9 | > 50000 | 1600 | 1700 |  |  |  |  |  |  |  |  | N[C@H]1CCN(C(=O)c2cc3c(O)c4c(c(O)c3o2)C(=O)c2ccccc2C4=O)C1 | > 31.2 | 1.1 | > 50000
10 | 9000 | 1200 | 2300 |  |  |  |  |  |  |  |  | CS(=O)(=O)O.O=C(NC1CCCNC1)c1cc2c(O)c3c(c(O)c2[nH]1)C(=O)c1ccccc1C3=O (racemic) | 3.7 | 1.9 | 4400
11 |  |  | 14000 |  |  |  |  |  |  |  |  | COc1cccc2c1C(=O)c1c(O)c3c(c(O)c1C2=O)C[C@@](O)(C(=O)CO)C[C@@H]3O[C@H]1C[C@H](N)[C@H](O)[C@H](C)O1 [DOXORUBICIN] |  |  | 
